From PMC8509676, “Residual Helicity at the Active Site of the Histidine Phosphocarrier, HPr, Modulates Binding Affinity to Its Natural Partners” (International Journal of Molecular Sciences, 2021)
Read-outs that look alike come from different tables or passages of the source.

T1: Regulator of sigma D from Escherichia coli (Rsd^ec) (E. coli, UniProt P0AFX4 1-158)
T1 construct: Rsd (regulator of sigma D), anti-sigma factor of sigma 70, E. coli; 158-residue-long protein; called 'intact Rsd' in the abstract and 'wild-type Rsd vector' in the methods; Vector was a gift from Ann Hochschild; source: E. coli C41, purified as described [24,50]
T1 sequence (looked up): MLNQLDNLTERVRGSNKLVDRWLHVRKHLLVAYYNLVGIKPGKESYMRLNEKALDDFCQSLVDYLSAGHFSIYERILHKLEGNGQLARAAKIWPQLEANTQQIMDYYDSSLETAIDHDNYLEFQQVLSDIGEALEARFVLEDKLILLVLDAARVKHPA


Tests used:
[1] = Far-UV CD, helicity from molar ellipticity at 222 nm; format: physicochemical; settings: 5 °C; for [Θ]^222 (value in parentheses): 50 mM Tris pH 7.0; for Helicity (%): 50 mM Tris pH 7.0, from [Θ]^222 assuming −39,500 deg cm^2 dmol^−1 for a fully formed α-helix
Method: Spectra were collected on a Jasco J810 spectropolarimeter (Jasco, Tokyo, Japan) interfaced with a Peltier unit. Far-UV measurements were performed with samples placed in quartz cells with a 0.1 cm path length (Hellma, Kruibeke, Belgium), with a response time of 2 s, a band width of 1 nm, and a scan velocity of 50 nm/min. For all peptides, a wide range of concentrations (10–50 µM) was used to determine whether either the shape or the intensity of the spectra was concentration-dependent. None of those features changed in the concentration range explored. The experiments in aqueous solution were acquired at 5 °C in Tris buffer (50 mM, pH 7.0). Raw ellipticity was converted to molar ellipticity, [Θ], from which the fraction of helical populations was determined as previously described. For the experiments in the presence of each protein (repeated three times), the same concentration used in the fluorescence experiments was used, and the experimental set-up was the same as described above for the isolated peptides.

[2] = TFE titration followed by far-UV CD (disordered-helical two-state equilibrium); format: physicochemical; settings: for [TFE]1/2 / m: TFE titration by far-UV CD, 20 µM peptide, two-state fit, fitting errors; for percentage of helical population (in parentheses): from ∆G^water assuming a two-state conformational equilibrium; for ∆G^water: product of m- and [TFE]1/2 values, error propagation
Method: For experiments in the presence of TFE, the same set of experimental parameters was used. Cosolvent concentrations were indicated in percentage of volume (%). […] The peptide concentration for these experiments was 20 µM.

[3] = target: T2, Rsd^ec (Escherichia coli, UniProt P0AFX4); test: Fluorescence titration, peptide/Rsd^ec binding
T2 construct: His-tag; made in house; host or cells: E. coli C41
Method: (§1) Spectra were collected at 25 °C on a Cary spectrofluorometer (Agilent, Madrid, Spain), with a Peltier temperature controller. The samples were prepared the day before and left overnight at 5 °C. Before measurements, the samples were incubated for 1 h at 25 °C. A quartz cell with a 1 cm path length (Hellma, Kruibeke, Belgium) was used. In all the experiments, the slit widths were equal to 5 nm for both the excitation and emission lights. Protein samples were excited at either 280 or 295 nm. The experiments were performed between 300 and 400 nm. The signal was acquired for 1 s, and the increment of wavelength was set to 1 nm. Appropriate blank corrections were made in all spectra. For the binding experiments, 3 µM of either protein (Rsd^ec or EIN^sc) and 15 µM of the corresponding peptide were mixed. The experiments in aqueous solution were acquired in Tris buffer (50 mM, pH 7.0).
(§2) For the titration between either of the two proteins (Rsd^ec or EIN^sc) and the corresponding peptide, increasing amounts of the latter, in a concentration range of 0 to 30 µM, were added to a solution with a fixed concentration of each protein (3 µM). The experimental set-up was identical to that described above, including preparation of the samples the day before and their storage overnight at 5 °C. Before measurements, the samples were incubated for 1 h at 25 °C. The fluorescence of a blank solution containing only the corresponding peptide was subtracted for each data point. […] The Kd was determined by following the fluorescence at selected wavelengths and fitting experimental data to Equation (1). […] At all used concentrations, the fluorescence was corrected by the inner-filter effects.

[4] = test system: Staphylococcus aureus CECT59; format: cell-based; settings: S. aureus CECT59, two-fold broth microdilution (CLSI), MH broth, 24 h, 37 °C; triplicate (sd = 0); highest concentration tested 400 µM
Method: The CECT59 strain of the Gram-positive bacteria Staphylococcus aureus from the Spanish Type Culture Collection (Colección Española de Cultivos Tipo, CECT, Universitat de Valencia, Spain) was used for determining its sensitivity to the HPr peptides studied in this work. The MIC for each peptide was determined by the two-fold broth microdilution method according to the Clinical and Laboratory Standards Institute (CLSI) guidelines, with some modifications as previously described. For this testing procedure, a bacteria colony previously grown in MH agar plates was isolated and incubated in MH broth at 37 °C overnight to prepare the bacteria inoculum to be used in each assay. Then, the bacteria suspensions were adjusted to a 100× dilution of an 0.5 McFarland turbidity standard in MH broth and incubated with different concentrations of each peptide in round-bottom 96-well polystyrene plates (Deltalab S.L., Rubí, Spain) (50 μL/well) for 24 h at 37 °C. The peptide concentrations employed comprised two-fold dilutions starting at either 120, 160, or 400 µM, depending on the experiment. […] All assays were performed in triplicate.

[5] = Translational diffusion NMR (DOSY); format: physicochemical; settings: for D (translational diffusion coefficient): DOSY, 10 °C, 100% D2O, 70-120 µM peptide, fitting errors, repeated twice; for Rh (in parentheses, from DOSY): from comparison with the Rh of dioxane (2.12 Å)
Method: (b) Translational diffusion NMR (DOSY): Peptide concentrations were the same as those used in the 1D-^1H-NMR spectra. Translational self-diffusion measurements were performed with the pulsed-gradient spin-echo sequence in the presence of 100% D2O. The following relationship existed between the translational self-diffusion coefficient, D, and the delays used during experiment acquisition:(2) I/I0=−exp(DγH2δ^2G^2(Δ−δ/3−τ/2)) where I is the peak intensity of a particular resonance (or a group of them) at any gradient strength; I0 is the maximum peak intensity of the same resonance(s) at the smallest gradient strength (that is, at 2% of the total power of the gradient coil); D is the translational self-diffusion constant (in cm^2 s^−1); δ is the duration (in s) of the gradient; G is the gradient strength (in T cm^−1); ∆ is the time (in s) between the gradients; γH is the gyromagnetic constant of the proton (in rad s^−1 T^−1); and τ is the recovery delay between the bipolar gradients (100 µs in our experiments). The gradient strength (G) was varied in 16 lineal steps, between 2 and 95% of the total power of the gradient coil of the probe. The gradient strength was calibrated by using the value of D for the residual proton water line in a sample containing 100% D2O placed in a 5 mm tube [42]. Data were plotted as I/I0 versus G^2, and the exponential factor of the curve was:(3) DγH2δ^2(Δ−δ/3−τ/2) from which D can be obtained. The duration of the gradient (δ) was 2.25 ms, and the time between the two gradients (∆) was set to 200 ms. The signal from the methyl groups between 1.1 and 0.70 ppm were used for integration of the intensity. A final concentration of 1% of dioxane was added to each peptide; the hydrodynamic radius, Rh, of each peptide was obtained for comparison by assuming that the Rh of dioxane was 2.12 Å [42]. The DOSY experiment was repeated twice with fresh samples for each peptide.

[6] = target: T2, Rsd^ec; test: Isothermal titration calorimetry (ITC), peptide/Rsd^ec binding; settings: for ΔH, Rsd^ec: 50 mM Tris pH 7.0
Method: (§3) The experimental set-up and data processing of ITC experiments has been described previously. Rsd^ec or EIN^sc (at 10–20 µM) were injected into the cell, and the peptides in the syringe (100–200 µM) in 50 mM of Tris buffer, pH 7.0. The temperature for all the experiments was 25 °C. Typically, each calorimetric titration consisted of performing 19 injections with 2 μL volume, with a time spacing of 150 s, while stirring at 750 rpm in an Auto-iTC200 high-sensitivity microcalorimeter (MicroCal, Malvern-Panalytical, Malvern, UK). The results were analysed by applying a model that considered a single binding site (assuming a 1:1 stoichiometry) for the peptide/EIN^sc or peptide/Rsd^ec interaction using a nonlinear least-squares regression analysis in Origin 7.0 (OriginLab, Northampton, MA, USA) with user-defined fitting routines.

[7] = target: EI (Streptomyces coelicolor) (UniProt Q9KZP1); test: ITC; settings: cited from earlier work
[8] = target: Rsd (Escherichia coli) (UniProt C5A0T6); test: ITC; settings: cited from earlier work
[9] = target: EIN^sc (N-terminal domain of EI^sc) (Streptomyces coelicolor, UniProt Q9KZP1); test: biochemical; format: binding
Method: as §3

[10] = target: EIN^sc (Streptomyces coelicolor, UniProt Q9KZP1); test: biochemical; format: binding
Method: as §1, §2

[11] = target: EI EIN (Streptomyces coelicolor) (UniProt Q9KZP1); test: ITC; settings: cited from earlier work
[12] = target: T1, Regulator of sigma D from Escherichia …; test: other fluorescence titration; peptide 0–30 µM added to 3 µM Rsd^ec or EIN^sc; 50 mM Tris, pH 7.0, 25 °C; samples left overnight at 5 °C; blank of peptide subtracted; settings: both partners purified
[13] = target: T1, Regulator of sigma D from Escherichia …; test: ITC; Rsd^ec or EIN^sc (10–20 µM) in the cell, peptide (100–200 µM) in the syringe; 50 mM Tris, pH 7.0, 25 °C; single binding-site model, 1:1 stoichiometry assumed; settings: both partners purified
[14] = target: Rsd; set-up: method as in PMID 24324139; settings: SPR; read-out: dissociation constant, Rsd-HPr in E. coli; cited from earlier work

Sequence of EIN^sc (Q9KZP1 1-230): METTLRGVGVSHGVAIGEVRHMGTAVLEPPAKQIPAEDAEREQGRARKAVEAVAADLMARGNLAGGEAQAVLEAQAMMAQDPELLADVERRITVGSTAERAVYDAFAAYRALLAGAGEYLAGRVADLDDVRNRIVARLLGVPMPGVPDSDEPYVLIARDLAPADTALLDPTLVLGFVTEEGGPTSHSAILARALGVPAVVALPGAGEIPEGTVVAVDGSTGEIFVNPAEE
Sequence of EIN^sc (N-terminal domain of EI^sc) (Q9KZP1 1-230): as above
Sequence of EI (Streptomyces coelicolor) (Q9KZP1 whole entry): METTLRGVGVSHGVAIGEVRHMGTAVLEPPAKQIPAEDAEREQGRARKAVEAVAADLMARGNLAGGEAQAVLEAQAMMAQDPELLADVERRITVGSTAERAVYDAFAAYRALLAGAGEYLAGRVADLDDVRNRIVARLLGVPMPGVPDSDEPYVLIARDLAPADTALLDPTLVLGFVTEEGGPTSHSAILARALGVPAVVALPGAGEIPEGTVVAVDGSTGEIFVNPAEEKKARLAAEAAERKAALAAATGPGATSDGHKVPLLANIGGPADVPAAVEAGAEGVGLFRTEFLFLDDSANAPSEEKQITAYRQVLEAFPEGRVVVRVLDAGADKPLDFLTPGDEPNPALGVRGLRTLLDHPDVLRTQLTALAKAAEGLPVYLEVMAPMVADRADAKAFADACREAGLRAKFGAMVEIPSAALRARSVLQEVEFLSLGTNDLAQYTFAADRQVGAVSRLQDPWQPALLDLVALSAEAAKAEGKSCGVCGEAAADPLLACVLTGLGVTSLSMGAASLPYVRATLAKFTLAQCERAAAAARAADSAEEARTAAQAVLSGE
Sequence of EI EIN (Streptomyces coelicolor) (Q9KZP1 1-250): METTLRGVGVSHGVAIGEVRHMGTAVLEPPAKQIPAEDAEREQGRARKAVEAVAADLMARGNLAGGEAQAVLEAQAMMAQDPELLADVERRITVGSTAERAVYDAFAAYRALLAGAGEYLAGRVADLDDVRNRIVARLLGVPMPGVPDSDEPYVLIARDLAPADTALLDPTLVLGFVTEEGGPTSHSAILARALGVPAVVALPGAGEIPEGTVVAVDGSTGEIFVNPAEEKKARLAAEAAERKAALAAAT

Molecule	[Θ]^222 (value in parentheses) [1]	Helicity (%) [1]	[TFE]1/2 [2]	m [2]	percentage of helical population (in parentheses) [2]	∆G^water [2]	MIC [4]	D (translational diffusion coefficient) [5]	Rh (in parentheses, from DOSY) [5]	ΔH, Rsd^ec ([6]; ITC, 25 °C)	also measured
Ac-GWAEGLHARPASAFVRAATATG-NH2 [Peptide I21A]	−681.95 deg cm^2 dmol^−1	1.7%	23.8 ± 0.4 % (v/v)	197 ± 20 cal/mol (% (v/v))	0.02%	4.7 ± 0.5 kcal/mol	> 400 µM	1.9 ± 0.1 cm^2 s^−1 × 10^6	11 ± 1 Å	1.0 ± 0.4 kcal/mol	Kd [3]: 8 µM; Kd [6]: 2.6 ± 0.4 µM
HPr 9-30 (from UniProt O50515)											Kd [7]: 230 µM; Kd [8]: 2.5 µM
Ac-GWAEGLHARPASIFARAATATG-NH2 [Peptide V23A]	−988.51 deg cm^2 dmol^−1	2.5%	22.7 ± 0.3 % (v/v)	217 ± 23 cal/mol (% (v/v))	0.01%	4.9 ± 0.5 kcal/mol	> 400 µM	2.0 ± 0.1 cm^2 s^−1 × 10^6	11 ± 1 Å	-0.8 ± 0.5 kcal/mol	Kd [9]: 9.1 ± 0.9 µM; ΔH, EIN^sc ([9]; ITC, 25 °C, 50 mM Tris pH 7.0): -6.6 ± 0.5 kcal/mol; Kd [10]: 9 µM
Ac-GWAEGLHARAASAAARAATATG-NH2 [P18A/I21A/F22A/V23A]	−7305.73 deg cm^2 dmol^−1	18.4%	21 ± 1 % (v/v)	157 ± 26 cal/mol (% (v/v))	0.24%	3.3 ± 0.6 kcal/mol	> 400 µM	1.7 ± 0.1 cm^2 s^−1 × 10^6	12 ± 2 Å	4.3 ± 0.5 kcal/mol	Kd ([3]; fluorescence titration, 3 µM protein, 0-30 µM peptide, 25 °C, 50 mM Tris pH 7.0, uncertainties are fitting errors, repeated three times, read-out: Kd, Rsd^ec (fluorescence titration, value in parentheses) (converted)): 10 µM; Kd ([10]; fluorescence titration, 3 µM protein, 0-30 µM peptide, 25 °C, 50 mM Tris pH 7.0, uncertainties are fitting errors, repeated three times, read-out: Kd, EIN^sc (fluorescence titration, value in parentheses)): 11 µM; Kd ([6]; ITC, 25 °C, 50 mM Tris pH 7.0, single binding-site model, read-out: Kd, Rsd^ec (ITC)): 5 ± 0.7 µM
HPr (from UniProt O50515)											Kd [11]: 12 µM; Kd [8]: 2 µM
Ac-GWAEGLHARPASIAVRAATATG-NH2 (HPr of Streptomyces coelicolor, residues 9-30, with F22A; source: synthetic peptide, bought: NZYTech (purity >95%)) [HPr^9–30 F22A peptide]											Kd [12]: 11 µM; Kd [13]: 5.9 ± 0.7 µM; dH [13]: 1.1 ± 0.5 kcal/mol
HPr^sc: intact histidine phosphocarrier protein HPr from Streptomyces coelicolor (O50515) (protein, UniProt O50515 2-93, looked up) Phosphocarrier protein HPr: AERRVNVGWAEGLHARPASIFVRAATATGVPVTIAKADGSPVNAASMLAVLGLGAQGGEEIVLASDAEGAEAALERLAKLVAEGLEELPETV											Kd [14]: 0.00887 µM
